# Values of other authors in patent US8058304B2, “Merged ion channel modulating compounds and uses thereof” (Cardiome Pharma Corp., priority 2004, dated 2011).
# System: patients with left ventricular dysfunction after recent and remote myocardial infarction
# Settings: optically pure d-sotalol; SWORD study, Lancet 1996
smiles,measurement,value
CC(C)NC[C@@H](O)c1ccc(NS(C)(=O)=O)cc1 [d-sotalol],increased mortality compared to placebo,65%
